Data as given in the supplement of paper PMC10307832.

Key:
Experiment in all cases: relative viability (nuclei count vs DMSO), 5 days (fraction); higher = more cells survive
[1] = compound: Cc1cnc(CNC(=O)c2c(=O)c3ccc(N4CCCN(C)CC4)nc3n3c2sc2ccccc23)cn1 [CX-5461] + CC(=O)c1c(C)c2cnc(Nc3ccc(N4CCNCC4)cn3)nc2n(C2CCCC2)c1=O [Palbociclib] (partner 0.5 µM)
Method in brief: (§1)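 Lung cancer cell lines were pin-tool dosed in 1536-well plates on the day after seeding, with either a lone drug or a fixed anchor-drug dose plus five library-drug doses (not always all listed) in √10 steps. Nuclei were counted on 4× images after 5 days. Relative viability is the ratio of treated-well to vehicle-well nuclei counts, with each value a median of duplicate plates.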

[2] = compound: Cc1cnc(CNC(=O)c2c(=O)c3ccc(N4CCCN(C)CC4)nc3n3c2sc2ccccc23)cn1 [CX-5461] + CS(=O)(=O)CCNCc1ccc(-c2ccc3ncnc(Nc4ccc(OCc5cccc(F)c5)c(Cl)c4)c3c2)o1 [Lapatinib] (partner 2 µM)
Method in brief: as §1

[3] = compound: O=C(Nc1cc(C(F)(F)F)cc(C(F)(F)F)c1)c1cc(Cl)ccc1O [IMD-0354] + CCNC(=O)c1noc(-c2cc(C(C)C)c(O)cc2O)c1-c1ccc(CN2CCOCC2)cc1 [Luminespib] (partner 0.01 µM)
Method in brief: as §1

[4] = compound: O=C(Nc1cc(C(F)(F)F)cc(C(F)(F)F)c1)c1cc(Cl)ccc1O [IMD-0354] + Cc1cc(Nc2cc(N3CCN(C)CC3)nc(Sc3ccc(NC(=O)C4CC4)cc3)n2)n[nH]1 [Tozasertib] (partner 0.1 µM)
Method in brief: as §1

## UMC-11
[1]; first compound 0.01 µM
  relative viability: 0.36
[1]; first compound 0.03162 µM
  relative viability: 0.319
[1]; first compound 0.1 µM
  relative viability: 0.306
[1]; first compound 0.3162 µM
  relative viability: 0.294
[1]; first compound 1 µM
  relative viability: 0.241
[2]; first compound 0.01 µM
  relative viability: 1.07
[2]; first compound 0.03162 µM
  relative viability: 1.01
[2]; first compound 0.1 µM
  relative viability: 0.855
[2]; first compound 0.3162 µM
  relative viability: 0.454
[2]; first compound 1 µM
  relative viability: 0.269
[3]; first compound 0.04 µM
  relative viability: 1.1
[3]; first compound 0.1265 µM
  relative viability: 0.888
[3]; first compound 0.4 µM
  relative viability: 0.434
[3]; first compound 1.265 µM
  relative viability: 0.27
[3]; first compound 4 µM
  relative viability: 0.273
[4]; first compound 0.04 µM
  relative viability: 0.202
[4]; first compound 0.1265 µM
  relative viability: 0.219
[4]; first compound 0.4 µM
  relative viability: 0.187
[4]; first compound 1.265 µM
  relative viability: 0.182
[4]; first compound 4 µM
  relative viability: 0.203
